Measurements as given in article PMC7026418, “The kinase polypharmacology landscape of clinical PARP inhibitors” (Scientific Reports, 2020).
Where two headings read alike, the source gives them in different places.

Legend:
Experiment in all cases: biochemical
Set-up in all cases: DiscoveRx KINOMEscan active site-directed competition binding; percent of control kinase bound to immobilised ligand
IKK-beta = biological target: T1, IKK-beta (Homo sapiens, UniProt O14920)
T1 construct: gene IKBKB
T1 sequence (O14920 1-756): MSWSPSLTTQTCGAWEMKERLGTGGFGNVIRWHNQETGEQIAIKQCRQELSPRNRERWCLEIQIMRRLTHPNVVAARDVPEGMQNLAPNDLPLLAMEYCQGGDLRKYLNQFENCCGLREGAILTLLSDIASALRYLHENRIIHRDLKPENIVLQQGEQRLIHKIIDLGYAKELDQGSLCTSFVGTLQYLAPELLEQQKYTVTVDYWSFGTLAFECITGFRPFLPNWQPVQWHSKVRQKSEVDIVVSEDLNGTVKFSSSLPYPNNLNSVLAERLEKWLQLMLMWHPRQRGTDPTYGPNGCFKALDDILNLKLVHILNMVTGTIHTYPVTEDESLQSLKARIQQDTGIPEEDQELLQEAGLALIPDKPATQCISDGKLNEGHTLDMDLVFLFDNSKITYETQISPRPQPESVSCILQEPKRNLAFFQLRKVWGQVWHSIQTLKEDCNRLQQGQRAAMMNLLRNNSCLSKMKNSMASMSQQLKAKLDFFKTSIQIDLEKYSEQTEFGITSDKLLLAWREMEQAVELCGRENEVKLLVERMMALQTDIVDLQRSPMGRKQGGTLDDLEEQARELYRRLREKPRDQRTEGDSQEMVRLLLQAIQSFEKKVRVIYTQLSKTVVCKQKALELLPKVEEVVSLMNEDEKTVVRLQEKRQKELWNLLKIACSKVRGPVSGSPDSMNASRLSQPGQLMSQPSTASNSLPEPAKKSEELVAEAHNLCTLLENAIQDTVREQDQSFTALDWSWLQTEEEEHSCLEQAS

TAOK2 = biological target: T2, TAOK2 (Homo sapiens, UniProt Q9UL54)
T2 sequence (Q9UL54 1-1235): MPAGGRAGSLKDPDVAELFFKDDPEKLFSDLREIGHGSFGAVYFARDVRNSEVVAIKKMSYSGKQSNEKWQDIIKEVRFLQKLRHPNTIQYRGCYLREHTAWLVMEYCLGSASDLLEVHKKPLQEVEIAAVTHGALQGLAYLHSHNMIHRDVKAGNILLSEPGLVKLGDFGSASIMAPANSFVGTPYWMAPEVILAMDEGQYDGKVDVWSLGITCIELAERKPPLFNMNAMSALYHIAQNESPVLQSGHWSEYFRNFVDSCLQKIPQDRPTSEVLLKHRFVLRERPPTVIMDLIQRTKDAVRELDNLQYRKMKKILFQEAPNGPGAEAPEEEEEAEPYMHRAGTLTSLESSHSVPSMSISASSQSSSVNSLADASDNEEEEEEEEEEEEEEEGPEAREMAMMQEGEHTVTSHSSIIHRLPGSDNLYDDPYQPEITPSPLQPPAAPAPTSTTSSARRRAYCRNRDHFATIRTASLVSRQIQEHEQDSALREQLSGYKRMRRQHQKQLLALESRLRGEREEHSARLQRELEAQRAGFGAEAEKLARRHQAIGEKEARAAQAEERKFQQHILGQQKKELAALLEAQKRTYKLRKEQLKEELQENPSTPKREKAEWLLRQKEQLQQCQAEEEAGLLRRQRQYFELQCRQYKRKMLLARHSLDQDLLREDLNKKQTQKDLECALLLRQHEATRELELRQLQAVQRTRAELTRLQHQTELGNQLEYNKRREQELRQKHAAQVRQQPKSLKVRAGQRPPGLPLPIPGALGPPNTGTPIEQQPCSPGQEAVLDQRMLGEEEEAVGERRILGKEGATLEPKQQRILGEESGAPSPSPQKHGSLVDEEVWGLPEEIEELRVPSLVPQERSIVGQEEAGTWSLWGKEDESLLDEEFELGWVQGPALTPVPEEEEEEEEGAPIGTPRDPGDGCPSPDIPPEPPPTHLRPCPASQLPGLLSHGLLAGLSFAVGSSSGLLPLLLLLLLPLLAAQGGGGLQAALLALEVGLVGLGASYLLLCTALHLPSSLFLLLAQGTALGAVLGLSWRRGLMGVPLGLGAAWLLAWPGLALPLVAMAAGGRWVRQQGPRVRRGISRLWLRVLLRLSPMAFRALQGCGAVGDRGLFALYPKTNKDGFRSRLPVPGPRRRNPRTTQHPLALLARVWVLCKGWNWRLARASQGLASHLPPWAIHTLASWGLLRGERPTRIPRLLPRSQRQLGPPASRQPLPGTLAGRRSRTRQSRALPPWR

PRP4 = biological target: T3, PRP4 (Homo sapiens, UniProt Q13523)
T3 construct: gene PRPF4B

WEE1 = WEE1 (Homo sapiens, UniProt P30291)
MYLK = MYLK (Homo sapiens, UniProt Q15746)
[1] = biological target: EGFR(L747-S752del, P753S) (Homo sapiens, UniProt P00533, DEL747-752/P753S)
MEK2 = biological target: T4, MEK2 (Homo sapiens, UniProt P36507)
T4 construct: gene MAP2K2

CDK2 = CDK2 (Homo sapiens, UniProt P24941)
[2] = read-out: Talazoparib (BMN 673) / %Ctrl @ 10000nM
[3] = read-out: Olaparib / %Ctrl @ 10000nM
[4] = read-out: Niraparib (MK-4827) / %Ctrl @ 10000nM
[5] = read-out: Rucaparib / %Ctrl @ 10000nM, binding competition, % of control

WEE1, sequence (P30291 whole entry): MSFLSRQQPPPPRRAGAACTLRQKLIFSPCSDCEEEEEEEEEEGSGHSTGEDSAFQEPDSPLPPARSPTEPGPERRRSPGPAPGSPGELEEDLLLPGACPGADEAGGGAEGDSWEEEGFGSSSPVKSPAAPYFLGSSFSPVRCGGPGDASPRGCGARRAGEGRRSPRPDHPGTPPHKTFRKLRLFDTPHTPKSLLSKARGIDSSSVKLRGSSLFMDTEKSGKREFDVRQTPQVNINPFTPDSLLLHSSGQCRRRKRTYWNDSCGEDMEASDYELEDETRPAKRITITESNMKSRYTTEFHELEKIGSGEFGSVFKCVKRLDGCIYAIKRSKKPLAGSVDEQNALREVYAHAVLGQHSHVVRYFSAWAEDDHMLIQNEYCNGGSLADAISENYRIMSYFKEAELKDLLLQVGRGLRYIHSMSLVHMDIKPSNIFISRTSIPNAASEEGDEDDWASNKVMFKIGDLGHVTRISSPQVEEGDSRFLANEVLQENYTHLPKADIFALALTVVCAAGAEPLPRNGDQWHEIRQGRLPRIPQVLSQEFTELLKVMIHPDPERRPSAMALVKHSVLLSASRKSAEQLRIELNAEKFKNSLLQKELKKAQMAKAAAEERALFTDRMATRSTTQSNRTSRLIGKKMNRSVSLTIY
T3 sequence (Q13523 whole entry): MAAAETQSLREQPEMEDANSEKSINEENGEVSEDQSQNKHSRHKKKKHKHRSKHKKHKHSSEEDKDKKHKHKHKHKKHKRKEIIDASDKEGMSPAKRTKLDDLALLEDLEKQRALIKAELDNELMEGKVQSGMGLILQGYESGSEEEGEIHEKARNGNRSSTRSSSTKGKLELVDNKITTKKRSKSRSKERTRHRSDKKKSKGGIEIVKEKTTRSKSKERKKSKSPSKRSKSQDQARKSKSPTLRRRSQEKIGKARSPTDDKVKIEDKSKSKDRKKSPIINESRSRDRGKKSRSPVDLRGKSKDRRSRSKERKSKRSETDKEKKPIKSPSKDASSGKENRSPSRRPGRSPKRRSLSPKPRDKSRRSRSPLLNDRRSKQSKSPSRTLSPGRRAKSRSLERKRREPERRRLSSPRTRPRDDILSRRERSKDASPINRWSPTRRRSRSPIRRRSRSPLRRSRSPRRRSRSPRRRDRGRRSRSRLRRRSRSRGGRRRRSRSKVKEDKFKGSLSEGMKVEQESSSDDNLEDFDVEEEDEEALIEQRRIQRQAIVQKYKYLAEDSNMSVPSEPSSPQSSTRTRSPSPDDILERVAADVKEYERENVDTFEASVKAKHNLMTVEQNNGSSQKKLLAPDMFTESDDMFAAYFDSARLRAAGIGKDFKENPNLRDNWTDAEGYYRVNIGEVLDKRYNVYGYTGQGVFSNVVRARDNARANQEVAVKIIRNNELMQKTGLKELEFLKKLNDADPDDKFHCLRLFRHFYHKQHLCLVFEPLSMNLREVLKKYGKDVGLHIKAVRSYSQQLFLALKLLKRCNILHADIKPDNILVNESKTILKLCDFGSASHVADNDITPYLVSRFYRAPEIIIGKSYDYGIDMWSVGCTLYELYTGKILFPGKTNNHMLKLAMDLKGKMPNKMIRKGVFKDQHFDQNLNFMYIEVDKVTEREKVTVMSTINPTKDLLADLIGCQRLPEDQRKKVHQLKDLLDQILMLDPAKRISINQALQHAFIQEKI
MYLK, sequence (Q15746 whole entry): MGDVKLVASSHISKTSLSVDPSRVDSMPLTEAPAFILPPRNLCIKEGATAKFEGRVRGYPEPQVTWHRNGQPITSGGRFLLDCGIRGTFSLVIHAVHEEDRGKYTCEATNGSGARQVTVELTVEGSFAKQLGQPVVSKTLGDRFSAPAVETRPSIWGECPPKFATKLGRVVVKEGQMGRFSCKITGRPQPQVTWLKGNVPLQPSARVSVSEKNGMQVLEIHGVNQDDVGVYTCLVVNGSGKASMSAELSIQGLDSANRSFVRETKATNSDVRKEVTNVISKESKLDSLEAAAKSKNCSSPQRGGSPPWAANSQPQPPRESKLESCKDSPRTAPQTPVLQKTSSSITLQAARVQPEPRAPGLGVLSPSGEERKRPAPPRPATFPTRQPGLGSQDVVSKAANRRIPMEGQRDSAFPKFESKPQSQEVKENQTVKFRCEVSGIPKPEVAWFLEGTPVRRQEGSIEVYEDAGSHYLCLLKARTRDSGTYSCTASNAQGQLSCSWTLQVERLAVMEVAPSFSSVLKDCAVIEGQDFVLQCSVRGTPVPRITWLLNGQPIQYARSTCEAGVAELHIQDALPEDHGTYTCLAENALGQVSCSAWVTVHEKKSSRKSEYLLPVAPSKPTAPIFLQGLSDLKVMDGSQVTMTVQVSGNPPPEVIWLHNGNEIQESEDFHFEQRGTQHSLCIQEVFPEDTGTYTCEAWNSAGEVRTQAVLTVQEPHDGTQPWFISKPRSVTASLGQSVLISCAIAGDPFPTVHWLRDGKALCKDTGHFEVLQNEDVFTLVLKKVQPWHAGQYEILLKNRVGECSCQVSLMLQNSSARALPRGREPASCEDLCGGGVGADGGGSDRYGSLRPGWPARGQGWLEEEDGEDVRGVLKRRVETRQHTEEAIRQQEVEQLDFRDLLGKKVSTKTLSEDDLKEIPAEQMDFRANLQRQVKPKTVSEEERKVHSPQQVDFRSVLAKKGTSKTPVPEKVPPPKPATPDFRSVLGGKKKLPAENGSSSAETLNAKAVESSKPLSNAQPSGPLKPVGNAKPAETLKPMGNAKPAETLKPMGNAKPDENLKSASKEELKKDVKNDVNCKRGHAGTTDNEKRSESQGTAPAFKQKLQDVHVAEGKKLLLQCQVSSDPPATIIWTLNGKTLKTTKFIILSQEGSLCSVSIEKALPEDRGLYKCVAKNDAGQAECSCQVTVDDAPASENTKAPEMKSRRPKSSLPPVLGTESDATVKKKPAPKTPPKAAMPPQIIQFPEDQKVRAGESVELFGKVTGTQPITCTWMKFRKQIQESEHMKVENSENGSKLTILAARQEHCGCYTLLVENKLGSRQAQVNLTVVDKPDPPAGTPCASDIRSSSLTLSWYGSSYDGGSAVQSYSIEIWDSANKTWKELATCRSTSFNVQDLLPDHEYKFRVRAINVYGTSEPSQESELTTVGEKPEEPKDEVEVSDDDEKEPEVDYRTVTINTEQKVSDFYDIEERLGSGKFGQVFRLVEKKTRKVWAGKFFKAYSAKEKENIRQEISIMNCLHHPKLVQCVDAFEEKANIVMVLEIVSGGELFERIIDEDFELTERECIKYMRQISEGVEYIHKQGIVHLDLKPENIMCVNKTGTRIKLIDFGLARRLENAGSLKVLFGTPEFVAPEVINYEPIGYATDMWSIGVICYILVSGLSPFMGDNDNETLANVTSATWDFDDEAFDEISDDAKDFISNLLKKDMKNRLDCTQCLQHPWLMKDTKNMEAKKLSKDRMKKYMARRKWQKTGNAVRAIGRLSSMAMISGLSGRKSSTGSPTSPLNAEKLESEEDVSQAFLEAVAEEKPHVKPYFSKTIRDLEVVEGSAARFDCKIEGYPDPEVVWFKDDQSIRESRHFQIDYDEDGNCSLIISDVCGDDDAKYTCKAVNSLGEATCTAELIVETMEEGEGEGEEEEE
T4 sequence (P36507 whole entry): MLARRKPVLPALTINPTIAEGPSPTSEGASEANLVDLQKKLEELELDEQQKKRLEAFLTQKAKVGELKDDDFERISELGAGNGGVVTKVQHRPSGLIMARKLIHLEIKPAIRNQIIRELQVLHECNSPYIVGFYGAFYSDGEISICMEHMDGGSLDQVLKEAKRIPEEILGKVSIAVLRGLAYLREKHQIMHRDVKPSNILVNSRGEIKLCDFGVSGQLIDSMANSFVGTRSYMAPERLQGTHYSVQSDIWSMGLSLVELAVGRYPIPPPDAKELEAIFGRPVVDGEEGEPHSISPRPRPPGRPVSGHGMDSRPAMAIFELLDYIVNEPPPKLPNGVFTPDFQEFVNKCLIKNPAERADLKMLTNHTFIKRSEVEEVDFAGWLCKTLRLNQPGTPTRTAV

For Cn1ncnc1[C@H]1c2n[nH]c(=O)c3cc(F)cc(c23)N[C@@H]1c1ccc(F)cc1 [Talazoparib], the percent of control binding at 10 µM (IKK-beta; [2]) was 95%, the percent of control binding at 10 µM (TAOK2; [2]) was 100% and the percent of control binding at 10 µM (PRP4; [2]) was 100%. For the same compound, the percent of control binding at 10 µM (WEE1; [2]) was 100%, the percent of control binding at 10 µM (MYLK; [2]) was 77% and the percent of control binding at 10 µM [1, 2] was 98%. The percent of control binding at 10 µM (MEK2; [2]) was 57% and the percent of control binding at 10 µM (CDK2; [2]) was 96%.

With O=C(c1cc(Cc2n[nH]c(=O)c3ccccc23)ccc1F)N1CCN(C(=O)C2CC2)CC1 [Olaparib] the percent of control binding at 10 µM (IKK-beta; [3]) was 72%, the percent of control binding at 10 µM (TAOK2; [3]) was 93% and the percent of control binding at 10 µM (PRP4; [3]) was 82%. For the same compound, the percent of control binding at 10 µM (WEE1; [3]) was 100%, the percent of control binding at 10 µM (MYLK; [3]) was 75% and the percent of control binding at 10 µM [1, 3] was 100%. For the same compound, the percent of control binding at 10 µM (MEK2; [3]) was 87% and the percent of control binding at 10 µM (CDK2; [3]) was 93%.

NC(=O)c1cccc2cn(-c3ccc([C@@H]4CCCNC4)cc3)nc12 [Niraparib] showed a percent of control binding at 10 µM (IKK-beta; [4]) of 100%, a percent of control binding at 10 µM (TAOK2; [4]) of 100% and a percent of control binding at 10 µM (PRP4; [4]) of 97%. For the same compound, the percent of control binding at 10 µM (WEE1; [4]) was 100%, the percent of control binding at 10 µM (MYLK; [4]) was 73% and the percent of control binding at 10 µM [1, 4] was 93%. The percent of control binding at 10 µM (MEK2; [4]) was 74% and the percent of control binding at 10 µM (CDK2; [4]) was 100%.

CNCc1ccc(-c2[nH]c3cc(F)cc4c3c2CCNC4=O)cc1 [Rucaparib] was tested, and the percent of control binding at 10 µM (IKK-beta; [5]) was 35%, the percent of control binding at 10 µM (TAOK2; [5]) was 71% and the percent of control binding at 10 µM (PRP4; [5]) was 85%. It also gave a percent of control binding at 10 µM (WEE1; [5]) of 92%, a percent of control binding at 10 µM (MYLK; [5]) of 34% and a percent of control binding at 10 µM [1, 5] of 100%. It also gave a percent of control binding at 10 µM (MEK2; [5]) of 79% and a percent of control binding at 10 µM (CDK2; [5]) of 98%.
